Measured values: patent US20240239788A1, “SMALL MOLECULE INHIBITORS OF KRAS G12D MUTANT” (Merck Sharp & Dohme LLC, priority 2021, published 2024)
Read-outs that look alike come from different tables or passages of the source.

How the values were obtained:
[1] = target: KRAS protein containing G12D mutation (Homo sapiens (Human), UniProt P01116, G12D); test: SOS-catalyzed nucleotide exchange assay (GNE), TR-FRET; format: biochemical; conditions: biotinylated KRAS G12D, SOS and GTP, 60-minute incubation
Chain of KRAS protein containing G12D mutation (P01116 other isoform, or with tags, fused parts or gaps G12D (already in the parent)): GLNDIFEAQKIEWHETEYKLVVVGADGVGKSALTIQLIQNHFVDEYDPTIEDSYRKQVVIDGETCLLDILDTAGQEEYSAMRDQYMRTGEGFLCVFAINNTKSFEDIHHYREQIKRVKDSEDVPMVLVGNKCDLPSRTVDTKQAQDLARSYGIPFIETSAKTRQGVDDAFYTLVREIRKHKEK
Description: Compounds are added to this complex and then after a 60-minute incubation time the mixture is treated with SOS and unlabeled GTP. Small molecule inhibitors stabilize the Bodipy-GDP complex whereas the untreated protein rapidly exchanges Bodipy-GDP for unlabeled GTP resulting in reduced TR-FRET signal.
This solution is referred to as biotinylated KRAS G12D stock solution.

[2] = test system: AsPC-1 cells containing homozygous KRAS-G12D activating mutation; test: Cellular phospho-ERK assay (Examples 1a-106); format: cell-based; conditions: AsPC-1 cells, 2 hours, ratio of p-Erk vs total Erk, read-out: IC50 (nM) pERK (Cell)
Source text: 5% CO? overnight. […] Assay plates were read on a EnVision Multimode Plate Reader (PerkinElmer) and the ratio of p-Erk vs total Erk in each well was used as the final readout.

[3] = target: KRAS G12D / Ras binding domain of C-RAF (Homo sapiens (Human), UniProt P01116, G12D); test: RAS:RAF-RBD binding assay (cRaf), TR-FRET; conditions: biotinylated KRAS G12D, GST-C-RAF RBD
Chain of KRAS G12D / Ras binding domain of C-RAF (P01116 other isoform, or with tags, fused parts or gaps G12D (already in the parent)): as above

| Structure (SMILES) | IC50 [1] [nM] | IC50 ([2]; Homo sapiens, ASPC1, 2 h) [nM] | IC50 ([3]; IC50 (nM) (cRaf)) | IC50 [2] [nM] | IC50 ([3]; read-out: IC50 (nM) (cRaf)) |
| --- | --- | --- | --- | --- | --- |
| Cc1cc2[nH]ncc2c(-c2c(F)cc3c(N4C[C@H]5CC[C@@](C)(C4)N5)nc(OC[C@@H]4C[C@@H](F)CN4C)nc3c2F)c1C(F)(F)F [Example 67, 6,8-difluoro-2-(((2S,4R)-4-fluoro-1-methylpyrrolidin-2-yl)methoxy)-7-(6-methyl-5-(trifluoromethyl)-H-indazol-4-yl)-4-((1S,5R)-1-methyl-3,8-diazabicyclo[3.2.1]octan-3-yl)quinazoline] | 173 | 2860 | 4040 | – | – |
| C[C@@]12CC(O)[C@@](C)(CN(c3nc(OC[C@@]45CCCN4C[C@H](F)C5)nc4c(F)c(-c5cc(O)cc6cccc(Cl)c56)c(F)cc34)C1)N2 (stereo partly drawn) [Example 106] | 2.09 | – | – | 76.1 | 49.4 |
| C[C@@]12CC[C@@H](CN(c3nc(OCC4(CN5CC[C@@H](F)C5)CC4)nc4c3CCN(c3cccc5cccc(Br)c35)C4)C1)N2 [compound 94, 7-(8-bromonaphthalen-1-yl)-2-((1-(((R)-3-fluoropyrroli-din-1-yl)methyl)cyclopropyl)methoxy)-4-((1S,5R)-1-methyl-3,8-diazabicyclo[3.2.1]octan-3-yl)-5,6,7,8-tetrahydropyrido[3,4-d]pyrimidine] | 116 | 8470 | 32900 | – | – |
| C#Cc1cccc2cc(O)cc(-c3c(F)cc4c(N5C[C@]6(C)CC[C@H]5CN6)nc(OC[C@@]56CCCN5C[C@H](F)C6)nc4c3F)c12 [compound 104, 4-(6,8-difluoro-2-(((2R,7aS)-2-fluorotetrahydro-1H-pyrrolizin-7a(5H)-yl)methoxy)-4-((1S,4S)-4-methyl-2,5-diazabicyclo[2.2.2]octan-2-yl)quinazolin-7-yl)-5-ethynylnaphthalen-2-ol] | 1.05 | 11.8 | 5.93 | – | – |
